# Measured values reported in patent US10800772B2 (Gilead Sciences, Inc., priority 2016, dated 2020).
# Like-named read-outs stand apart in the source and are kept apart here.
# Assays:
# Format in all cases: cell-based, HIV-1
# HIV-IIIb IN T174I DE = experiment: Antiviral assay in MT4 cells, HIV-IIIb IN T174I DE virus (from dose escalation passaging)
# In short: (§1)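 HIV-IIIb at 0.004 m.o.i., 3 h pre-infection of MT4 cells at 37 °C; 2000 cells/well in RPMI 1640 + 10% FBS with 3-fold compound dilutions, 10 conc., quadruplicate. 5-day incubation, CellTiter-Glo readout. EC50 = 50% luminescence decrease.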
# HIV-IIIb IN T174I BT = experiment: Antiviral assay in MT4 cells, HIV-IIIb IN T174I BT virus (from viral breakthrough)
# In short: as §1
# HIV-IIIb (wildtype) = experiment: Antiviral assay in MT4 cells, HIV-IIIb wildtype; settings: read-out: WT EC50
# In short: as §1
# [1] = Human immunodeficiency virus 1, IIIB, MT4, 120 h, read-out: T174I DE EC50, MT4 cells, HIV-IIIb IN T174I DE (dose escalation), 5 days, CellTiter-Glo
# [2] = Human immunodeficiency virus 1, IIIB, MT4, 120 h, read-out: T174I BT EC50, MT4 cells, HIV-IIIb IN T174I BT (viral breakthrough), 5 days, CellTiter-Glo
# [3] = Human immunodeficiency virus 1, IIIB, MT4, 120 h
SMILES,EC50 (HIV-IIIb IN T174I DE; [1]) [µM],EC50 (HIV-IIIb IN T174I BT; [2]) [µM],EC50 (HIV-IIIb (wildtype); [3]) [µM],"EC50 (HIV-IIIb IN T174I DE; read-out: T174I DE EC50, MT4 cells, HIV-IIIb IN T174I DE (dose escalation), 5 days, CellTiter-Glo) [µM]","EC50 (HIV-IIIb IN T174I BT; read-out: T174I BT EC50, MT4 cells, HIV-IIIb IN T174I BT (viral breakthrough), 5 days, CellTiter-Glo) [µM]","EC50 (HIV-IIIb (wildtype); MT4 cells, HIV-IIIb wildtype, 5 days, CellTiter-Glo) [µM]"
"Cc1cc2nc(-c3ccc4c(c3)c(C3CN(C(C)C)C3)nn4C)sc2c(-c2ccc(Cl)cc2)c1[C@H](OC1CC1)C(=O)O [Compound 55, (S)-2-(7-(4-chlorophenyl)-2-(3-(1-isopropylazetidin-3-yl)-1-methyl-1H-indazol-5-yl)-5-methylbenzo[d]thiazol-6-yl)-2-cyclopropoxyacetic Acid]",1.07,0.372,0.036,–,–,–
"COCCN1CC(c2nn(C)c3ccc(-c4nc5cc(C)c([C@H](OC(C)(C)C)C(=O)O)c(-c6ccc(Cl)cc6)c5s4)cc23)C1 [Compound 56, (S)-2-(tert-butoxy)-2-(7-(4-chlorophenyl)-2-(3-(1-(2-methoxyethyl)azetidin-3-yl)-1-methyl-1H-indazol-5-yl)-5-methylbenzo[d]thiazol-6-yl)acetic acid]",2.07,1.39,0.004,–,–,–
"Cc1cc2nc(-c3ccc4c(c3)c(C3CN(C)C3)nn4C)sc2c(-c2ccc(Cl)cc2)c1[C@H](OC(C)(C)C)C(=O)O [Compound 57, (S)-2-(tert-butoxy)-2-(7-(4-chlorophenyl)-5-methyl-2-(1-methyl-3-(1-methylazetidin-3-yl)-1H-indazol-5-yl)benzo[d]thiazol-6-yl)acetic acid]",4.14,4.26,0.013,–,–,–
"CCN1CC(c2nn(C)c3ccc(-c4nc5cc(C)c([C@H](OC(C)(C)C)C(=O)O)c(-c6ccc(Cl)cc6)c5s4)cc23)C1 [Compound 58, (S)-2-(tert-butoxy)-2-(7-(4-chlorophenyl)-2-(3-(1-ethylazetidin-3-yl)-1-methyl-1H-indazol-5-yl)-5-methylbenzo[d]thiazol-6-yl)acetic acid]",3.09,1.93,0.009,–,–,–
"Cc1cc2nc(-c3ccc4c(c3)c(C3CN(C5COC5)C3)nn4C)sc2c(-c2ccc(Cl)cc2)c1[C@H](OC(C)(C)C)C(=O)O [Compound 59, (S)-2-(tert-butoxy)-2-(7-(4-chlorophenyl)-5-methyl-2-(1-methyl-3-(1-(oxetan-3-yl)azetidin-3-yl)-1H-indazol-5-yl)benzo[d]thiazol-6-yl)acetic acid]",1.73,0.883,0.008,–,–,–
"Cc1cc2nc(-c3ccc4c(c3)c(C3CN(C(C)(C)C)C3)nn4C)sc2c(-c2ccc(Cl)cc2)c1[C@H](OC1CC1)C(=O)O [Compound 60, (S)-2-(2-(3-(1-(tert-butyl)azetidin-3-yl)-1-methyl-1H-indazol-5-yl)-7-(4-chlorophenyl)-5-methylbenzo[d]thiazol-6-yl)-2-cyclopropoxyacetic acid]",0.692,0.477,0.031,–,–,–
"Cc1cc2nc(-c3ccc4c(c3)c(C3CCN(C(=O)OC(C)(C)C)C3)nn4C)sc2c(-c2ccc(Cl)cc2)c1[C@H](OC(C)(C)C)C(=O)O (stereo partly drawn) [Compound 62, (2S)-2-(tert-butoxy)-2-(2-(3-(1-(tert-butoxycarbonyl)pyrrolidin-3-yl)-1-methyl-1H-indazol-5-yl)-7-(4-chlorophenyl)-5-methylbenzo[d]thiazol-6-yl)acetic acid]",0.514,0.331,0.108,–,–,–
"Cc1cc2nc(-c3ccc4c(c3)c(C3CCN(C)C3)nn4C)sc2c(-c2ccc(Cl)cc2)c1[C@H](OC(C)(C)C)C(=O)O (stereo partly drawn) [Compound 63, (2S)-2-(tert-butoxy)-2-(7-(4-chlorophenyl)-5-methyl-2-(1-methyl-3-(1-methylpyrrolidin-3-yl)-1H-indazol-5-yl)benzo[d]thiazol-6-yl)acetic acid]",13.2,2.8,0.01,–,–,–
"CCN1CCC(c2nn(C)c3ccc(-c4nc5cc(C)c([C@H](OC(C)(C)C)C(=O)O)c(-c6ccc(Cl)cc6)c5s4)cc23)C1 (stereo partly drawn) [Compound 64, (2S)-2-(tert-butoxy)-2-(7-(4-chlorophenyl)-2-(3-(1-ethylpyrrolidin-3-yl)-1-methyl-1H-indazol-5-yl)-5-methylbenzo[d]thiazol-6-yl)acetic acid]",2.62,2.84,0.011,–,–,–
"COCCN1CCC(c2nn(C)c3ccc(-c4nc5cc(C)c([C@H](OC(C)(C)C)C(=O)O)c(-c6ccc(Cl)cc6)c5s4)cc23)C1 (stereo partly drawn) [Compound 65, (2S)-2-(tert-butoxy)-2-(7-(4-chlorophenyl)-2-(3-(1-(2-methoxyethyl)pyrrolidin-3-yl)-1-methyl-1H-indazol-5-yl)-5-methylbenzo[d]thiazol-6-yl)acetic acid]",2.12,0.752,0.004,–,–,–
"Cc1cc2nc(-c3ccc4c(c3)c(C3CCN(C5CCC5)C3)nn4C)sc2c(-c2ccc(Cl)cc2)c1[C@H](OC(C)(C)C)C(=O)O (stereo partly drawn) [Compound 71, (2S)-2-(tert-butoxy)-2-(7-(4-chlorophenyl)-2-(3-(1-cyclobutylpyrrolidine-3-yl)-1-methyl-1H-indazol-5-yl)-5-methylbenzo[d]thiazol-6-yl)acetic acid]",2.24,2.47,0.005,–,–,–
"COC(=O)N1CCC(c2nn(C)c3ccc(-c4nc5cc(C)c([C@H](OC(C)(C)C)C(=O)O)c(-c6ccc(Cl)cc6)c5s4)cc23)C1 (stereo partly drawn) [Compound 72, (2S)-2-(tert-butoxy)-2-(7-(4-chlorophenyl)-2-(3-(1-(methoxycarbonyl)pyrrolidin-3-yl)-1-methyl-1H-indazol-5-yl)-5-methylbenzo[d]thiazol-6-yl)acetic acid]",1.03,0.553,0.007,–,–,–
"COCC(=O)N1CCC(c2nn(C)c3ccc(-c4nc5cc(C)c([C@H](OC(C)(C)C)C(=O)O)c(-c6ccc(Cl)cc6)c5s4)cc23)C1 (stereo partly drawn) [Compound 75, (S)-2-(tert-butoxy)-2-(7-(4-chlorophenyl)-2-(3-((R)-1-(2-methoxyacetyl)pyrrolidin-3-yl)-1-methyl-1H-indazol-5-yl)-5-methylbenzo[d]thiazol-6-yl)acetic acid]",0.496,0.423,0.016,–,–,–
"COCC(=O)N1CCC(c2nn(C)c3ccc(-c4nc5cc(C)c([C@H](OC(C)(C)C)C(=O)O)c(-c6ccc(Cl)cc6)c5s4)cc23)C1 (stereo partly drawn) [Compound 76, (S)-2-(tert-butoxy)-2-(7-(4-chlorophenyl)-2-(3-((S)-1-(2-methoxyacetyl)pyrrolidin-3-yl)-1-methyl-1H-indazol-5-yl)-5-methylbenzo[d]thiazol-6-yl)acetic acid]",–,–,–,0.906,0.51,0.016
"Cc1cc2nc(-c3ccc4c(c3)c(N3CCNC3=O)nn4C)sc2c(-c2ccc(Cl)cc2)c1[C@H](OC(C)(C)C)C(=O)O [Compound 78, (S)-2-(tert-butoxy)-2-(7-(4-chlorophenyl)-5-methyl-2-(1-methyl-3-(2-oxoimidazolidin-1-yl)-1H-indazol-5-yl)benzo[d]thiazol-6-yl)acetic acid]",3.19,2.69,0.032,–,–,–
"COCCN1CCN(c2nn(C)c3ccc(-c4nc5cc(C)c([C@H](OC(C)(C)C)C(=O)O)c(-c6ccc(Cl)cc6)c5s4)cc23)C1=O [Compound 79, (S)-2-(tert-butoxy)-2-(7-(4-chlorophenyl)-2-(3-(3-(2-methoxyethyl)-2-oxoimidazolidin-1-yl)-1-methyl-1H-indazol-5-yl)-5-methylbenzo[d]thiazol-6-yl)acetic acid]",2.18,2.33,0.007,–,–,–
"CCN1CCN(c2nn(C)c3ccc(-c4nc5cc(C)c([C@H](OC(C)(C)C)C(=O)O)c(-c6ccc(Cl)cc6)c5s4)cc23)C1=O [Compound 82, (S)-2-(tert-butoxy)-2-(7-(4-chlorophenyl)-2-(3-(3-ethyl-2-oxoimidazolidin-1-yl)-1-methyl-1H-indazol-5-yl)-5-methylbenzo[d]thiazol-6-yl)acetic acid]",3.87,3.09,0.014,–,–,–
"Cc1cc2nc(-c3ccc4c(c3)c(N3CCN(CCN5CCOCC5)C3=O)nn4C)sc2c(-c2ccc(Cl)cc2)c1[C@H](OC(C)(C)C)C(=O)O [Compound 83, (S)-2-(tert-butoxy)-2-(7-(4-chlorophenyl)-5-methyl-2-(1-methyl-3-(3-(2-morpholinoethyl)-2-oxoimidazolidin-1-yl)-1H-indazol-5-yl)benzo[d]thiazol-6-yl)acetic acid]",2.81,2.23,0.017,–,–,–
"CCN1CCN(c2nn(C)c3ccc(-c4nc5cc(C)c([C@H](OC(C)(C)C)C(=O)O)c(-c6ccc(Cl)cc6)c5s4)cc23)CC1=O [Compound 84, (S)-2-(tert-butoxy)-2-(7-(4-chlorophenyl)-2-(3-(4-ethyl-3-oxopiperazin-1-yl)-1-methyl-1H-indazol-5-yl)-5-methylbenzo[d]thiazol-6-yl)acetic acid]",1.87,1.25,0.048,–,–,–
"Cc1cc2nc(-c3ccc4c(c3)c(N3CCN(C)C(=O)C3)nn4C)sc2c(-c2ccc(Cl)cc2)c1[C@H](OC(C)(C)C)C(=O)O [Compound 85, (S)-2-(tert-butoxy)-2-(7-(4-chlorophenyl)-5-methyl-2-(1-methyl-3-(4-methyl-3-oxopiperazin-1-yl)-1H-indazol-5-yl)benzo[d]thiazol-6-yl)acetic acid]",1.17,1.35,0.057,–,–,–
